In the supplement of paper PMC11551840:

Tests used:
Assay in all cases: IC50 (cell viability, 72 h) (ln(µM))
[1] = tested on: ORL-150
In short: (§1)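 Using acoustic dispensing, compounds were added 24 hours after twenty-one OSCC cell lines were seeded at optimised density in 7.5 μL of DMEM/F12 with 10% FBS in 1,536-well plates, at seven half-log concentrations spanning a 1,000-fold range (0.1% DMSO). Plates were held for 72 hours at 37°C before CellTiter-Glo 2.0 luminescence was read and normalised to DMSO-treated (1) and cell-free medium (0) controls. Two-parameter logistic curves were fitted, and a nonlinear mixed-effects fit yielded the IC50, reported as the natural log in µM.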

[2] = tested on: ORL-136
In short: as §1

[3] = tested on: ORL-174
In short: as §1

[4] = tested on: ORL-195
In short: as §1

[5] = tested on: ORL-153
In short: as §1

[6] = tested on: ORL-166
In short: as §1

[7] = tested on: ORL-188
In short: as §1

[8] = tested on: ORL-215
In short: as §1

[9] = tested on: SCC-9
In short: as §1

[10] = tested on: ORL-207
In short: as §1

[11] = tested on: ORL-214
In short: as §1

[12] = tested on: SAS
In short: as §1

[13] = tested on: ORL-48
In short: as §1

[14] = tested on: ORL-204
In short: as §1

[15] = tested on: BICR10
In short: as §1

[16] = tested on: HO-1-u-1
In short: as §1

[17] = tested on: PE-CA-PJ15
In short: as §1

[18] = tested on: HSC-2
In short: as §1

[19] = tested on: ORL-156
In short: as §1

[20] = tested on: HSC-4
In short: as §1

[21] = tested on: ORL-115
In short: as §1

Row | Structure (SMILES) | IC50 (ln) [1] | IC50 (ln) [2] | IC50 (ln) [3] | IC50 (ln) [4] | IC50 (ln) [5] | IC50 (ln) [6] | IC50 (ln) [7] | IC50 (ln) [8] | IC50 (ln) [9] | IC50 (ln) [10] | IC50 (ln) [11] | IC50 (ln) [12] | IC50 (ln) [13] | IC50 (ln) [14] | IC50 (ln) [15] | IC50 (ln) [16] | IC50 (ln) [17] | IC50 (ln) [18] | IC50 (ln) [19] | IC50 (ln) [20] | IC50 (ln) [21]
1 | CC[C@]1(O)C[C@@H]2CN(CCc3c([nH]c4ccccc34)[C@@](C(=O)OC)(c3cc4c(cc3OC)N(C)[C@H]3[C@@](O)(C(=O)OC)[C@H](OC(C)=O)[C@]5(CC)C=CCN6CC[C@]43[C@@H]65)C2)C1 [Vinblastine] | -7.11 | -0.44 | -3.94 | -3.12 | -5.08 | -5.26 | -4.52 | -6 | -1.75 | -6.16 | -5.86 | -2.06 | -4.28 | -1.25 | -5.52 | 0.0626 | -2.73 | -5.8 | -5.51 | 0.489 | -3.39
2 | CCC1=C[C@@H]2CN(C1)Cc1c([nH]c3ccccc13)[C@@](C(=O)OC)(c1cc3c(cc1OC)N(C)[C@H]1[C@@](O)(C(=O)OC)[C@H](OC(C)=O)[C@]4(CC)C=CCN5CC[C@]31[C@@H]54)C2 [Vinorelbine] | -4.87 | -0.871 | -4 | -3.19 | -4.32 | -3.98 | -4.3 | -4.43 | -2.4 | -4.86 | -3.96 | -1.52 | -4.11 | -2.86 | -3.91 | -2.27 | -2.05 | -4.57 | -4.75 | -1.06 | -3.17
3 | CC[C@@H]1C(=O)N(C)c2cnc(Nc3ccc(C(=O)N[C@H]4CC[C@H](N5CCN(CC6CC6)CC5)CC4)cc3OC)nc2N1C(C)C [Volasertib] | -3.61 | 2.12 | -2.1 | -1.33 | -2.22 | -2.71 | -2.92 | -2.84 | -0.541 | -2.9 | -1.65 | -0.561 | -1.36 | -0.0575 | -2.43 | -1.37 | 0.264 | -2.15 | -2.61 | -0.173 | -2.17
